Active and inactive are the calls of the source.
Columns and labels:
[1] = HIV-1 AD8 envelope cell-cell fusion blockers – cherry-pick, dose response (AID 652062); type: functional, cell-based;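 further: luciferase signal from cell-cell fusion driven by HIV-1 clade B AD8 Env; potency is for inhibitors of fusion seen as a drop in luminescence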
[2] = blockers of HIV-1 ZM109 envelope-driven cell-cell fusion – HeLa effector, CEM target cells, luciferase, cherry-pick, dose response (AID 652058); type: functional, cell-based;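 further: luciferase signal from HIV-1 Env mediated cell-cell fusion of effector and target cells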
[3] = off-target signal loss in HeLa-CEM21 co-culture – HeLa F-luc CTL cells, cherry-picked, counter-screen for HIV-1 Env fusion inhibitor project, dose response (AID 652040); type: functional, cell-based;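 further: potency for signal decrease marking cytotoxic or nonspecific inhibition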
[4] = target: T1, Heat shock factor protein 1 (Mus musculus, UniProt P38532); assay: decrease of HSF1-responsive luciferase luminescence – cell-based, NIH3T3, dose retest, confirmation (AID 2382); type: functional;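 further: NIH3T3 fibroblasts with HSF1-driven luciferase reporter stressed by proteasome inhibitor MG132; luminescence from HSF1-driven luciferase expression after 8 hours of MG132 stress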
T1 sequence (P38532 whole entry): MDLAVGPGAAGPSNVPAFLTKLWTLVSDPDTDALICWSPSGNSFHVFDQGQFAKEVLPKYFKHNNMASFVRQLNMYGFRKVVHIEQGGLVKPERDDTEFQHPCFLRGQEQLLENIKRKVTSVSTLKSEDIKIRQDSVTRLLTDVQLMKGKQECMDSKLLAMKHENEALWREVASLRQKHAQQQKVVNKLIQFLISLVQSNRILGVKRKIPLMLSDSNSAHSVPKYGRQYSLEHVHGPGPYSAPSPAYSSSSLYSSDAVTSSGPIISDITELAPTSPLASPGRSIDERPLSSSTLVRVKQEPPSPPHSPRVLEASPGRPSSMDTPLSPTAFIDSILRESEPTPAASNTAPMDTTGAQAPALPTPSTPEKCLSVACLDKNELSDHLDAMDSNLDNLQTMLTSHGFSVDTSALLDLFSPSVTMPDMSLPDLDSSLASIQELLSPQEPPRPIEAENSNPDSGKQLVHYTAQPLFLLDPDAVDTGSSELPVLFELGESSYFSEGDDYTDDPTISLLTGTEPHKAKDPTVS

[5] = blockers of HIV-1 envelope-mediated cell-cell fusion – cherry-pick, dose response (AID 652057); type: functional, cell-based
[6] = target: T2, Type-1 angiotensin II receptor (Homo sapiens, UniProt P30556); assay: antagonism of angiotensin II type 1 receptor – cell-based, uHTS hits, selectivity assay for APJ receptor antagonist project, dose response (AID 463214); type: functional;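 further: antagonist potency against angiotensin II stimulated AT1 response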
T2 sequence (P30556 whole entry): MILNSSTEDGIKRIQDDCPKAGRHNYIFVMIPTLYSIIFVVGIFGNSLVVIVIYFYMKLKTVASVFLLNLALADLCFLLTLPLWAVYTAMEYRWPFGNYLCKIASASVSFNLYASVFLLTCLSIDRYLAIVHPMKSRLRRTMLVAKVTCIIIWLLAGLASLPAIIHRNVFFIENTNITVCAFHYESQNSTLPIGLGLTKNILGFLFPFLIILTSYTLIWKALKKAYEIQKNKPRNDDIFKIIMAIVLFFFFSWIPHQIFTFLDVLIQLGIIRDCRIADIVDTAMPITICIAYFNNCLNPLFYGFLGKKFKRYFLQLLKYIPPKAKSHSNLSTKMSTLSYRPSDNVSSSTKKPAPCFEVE

[7] = target: Beta-galactosidase (Escherichia coli, UniProt Q8VNN2); assay: PubChem AID 485352; type: functional
Sequence of Beta-galactosidase (Q8VNN2 whole entry): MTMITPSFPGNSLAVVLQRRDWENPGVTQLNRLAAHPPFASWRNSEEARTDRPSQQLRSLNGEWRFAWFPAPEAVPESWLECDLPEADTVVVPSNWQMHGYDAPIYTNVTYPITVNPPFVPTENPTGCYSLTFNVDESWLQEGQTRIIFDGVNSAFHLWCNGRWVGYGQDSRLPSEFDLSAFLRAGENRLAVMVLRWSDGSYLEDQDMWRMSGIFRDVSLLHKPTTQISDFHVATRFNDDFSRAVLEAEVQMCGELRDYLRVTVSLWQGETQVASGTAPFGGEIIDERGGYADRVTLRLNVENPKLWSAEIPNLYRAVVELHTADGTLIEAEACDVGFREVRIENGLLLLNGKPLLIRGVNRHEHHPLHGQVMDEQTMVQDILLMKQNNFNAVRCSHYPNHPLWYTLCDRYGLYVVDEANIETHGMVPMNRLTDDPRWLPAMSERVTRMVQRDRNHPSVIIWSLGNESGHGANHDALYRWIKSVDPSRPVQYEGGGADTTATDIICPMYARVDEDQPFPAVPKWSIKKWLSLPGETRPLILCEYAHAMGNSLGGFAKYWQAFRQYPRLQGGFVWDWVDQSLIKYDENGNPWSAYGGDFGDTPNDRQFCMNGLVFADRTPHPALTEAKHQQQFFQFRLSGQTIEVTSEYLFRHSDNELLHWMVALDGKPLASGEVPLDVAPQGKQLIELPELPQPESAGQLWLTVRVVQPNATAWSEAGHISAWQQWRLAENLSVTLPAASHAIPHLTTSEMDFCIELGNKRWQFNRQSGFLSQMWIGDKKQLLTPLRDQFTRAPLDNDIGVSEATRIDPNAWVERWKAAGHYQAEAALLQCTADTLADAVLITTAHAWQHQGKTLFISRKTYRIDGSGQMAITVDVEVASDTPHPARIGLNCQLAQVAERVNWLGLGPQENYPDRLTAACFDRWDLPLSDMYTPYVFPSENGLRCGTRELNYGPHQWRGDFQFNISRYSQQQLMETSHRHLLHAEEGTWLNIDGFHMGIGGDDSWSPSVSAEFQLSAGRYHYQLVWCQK

[8] = Luminescence Cell-Based Dose Response HTS to Identify Activators of Luciferase Translation or Activity in H4 […] Cells. [Related pubchem assays: 1829 (Project Summary), 1814 (Primary HTS)]; type: functional
[9] = test system: H4; assay: Luminescence Cell-Based Dose Response HTS to Identify Activators of 5'UTR Stem-Loop Driven Prion Protein mRNA Translation in H4 Neuroglioblastoma Cells. [Related pubchem assays: 1829 (Project Summary), 1814 (Primary HTS)]; type: functional; details: Homo sapiens
[10] = Luminescence Cell-Based Dose Confirmation HTS to Identify Activators of 5'UTR Stem-Loop Driven Alpha-Synuclein mRNA Translation in H4 Neuroglioblastoma Cells. [Related pubchem assays: 1829 (Project Summary), 1814 (Primary HTS)]; type: functional
[11] = target: T3, Coagulation factor XII (Homo sapiens, UniProt P00748); type: functional;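 further: activated factor XIIa alpha cleaving a fluorogenic AMC peptide substrate; inhibitor potency from loss of enzyme activity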
T3 sequence (P00748 whole entry): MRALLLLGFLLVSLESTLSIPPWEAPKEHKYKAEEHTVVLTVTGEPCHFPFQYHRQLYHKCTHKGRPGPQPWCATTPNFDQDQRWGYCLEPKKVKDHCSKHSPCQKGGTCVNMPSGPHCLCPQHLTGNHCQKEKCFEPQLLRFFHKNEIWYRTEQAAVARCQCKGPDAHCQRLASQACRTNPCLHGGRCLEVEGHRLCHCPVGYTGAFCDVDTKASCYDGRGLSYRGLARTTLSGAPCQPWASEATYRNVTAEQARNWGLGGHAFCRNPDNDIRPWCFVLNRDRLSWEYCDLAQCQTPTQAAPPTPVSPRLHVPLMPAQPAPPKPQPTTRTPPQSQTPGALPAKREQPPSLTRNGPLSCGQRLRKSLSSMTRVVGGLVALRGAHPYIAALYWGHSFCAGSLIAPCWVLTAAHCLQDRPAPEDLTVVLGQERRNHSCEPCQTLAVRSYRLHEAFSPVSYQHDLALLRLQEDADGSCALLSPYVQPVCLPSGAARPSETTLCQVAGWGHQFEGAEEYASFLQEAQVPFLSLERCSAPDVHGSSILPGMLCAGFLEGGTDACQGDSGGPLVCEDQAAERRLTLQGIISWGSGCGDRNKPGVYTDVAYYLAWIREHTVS

[12] = target: T4, Calpain-2 catalytic subunit (Sus scrofa, UniProt P43367); assay: m-calpain protease blockers, concentration series – biochemical, fluorogenic peptide substrate, dose response (AID 1420); type: functional
T4 sequence (P43367 whole entry): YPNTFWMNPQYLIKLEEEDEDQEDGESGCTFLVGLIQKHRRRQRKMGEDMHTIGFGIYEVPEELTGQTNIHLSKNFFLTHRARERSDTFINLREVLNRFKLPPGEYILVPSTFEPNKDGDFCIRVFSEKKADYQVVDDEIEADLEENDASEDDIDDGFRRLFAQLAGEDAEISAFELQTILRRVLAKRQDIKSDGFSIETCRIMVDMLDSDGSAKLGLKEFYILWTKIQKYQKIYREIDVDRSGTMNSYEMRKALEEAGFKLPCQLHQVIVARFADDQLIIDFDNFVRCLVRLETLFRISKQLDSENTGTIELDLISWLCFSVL

[13] = Luminescence Cell-Based Dose Response HTS to Identify Inhibitors of 5'UTR Stem-Loop Driven Prion Protein mRNA Translation in H4 Neuroglioblastoma Cells. [Related pubchem assays: 1827 (Project Summary), 1813 (Primary HTS)]; type: functional
[14] = alpha-synuclein stem-loop luciferase translation blockers – H4 neuroglioma cells, luminescence, confirmation (AID 1988); type: functional, cell-based
[15] = target: Nonstructural protein 1 (Influenza A virus, UniProt Q194T2); type: functional, Influenza A virus (A/California/07/2009(H1N1))
Sequence of Nonstructural protein 1 (Q194T2 whole entry): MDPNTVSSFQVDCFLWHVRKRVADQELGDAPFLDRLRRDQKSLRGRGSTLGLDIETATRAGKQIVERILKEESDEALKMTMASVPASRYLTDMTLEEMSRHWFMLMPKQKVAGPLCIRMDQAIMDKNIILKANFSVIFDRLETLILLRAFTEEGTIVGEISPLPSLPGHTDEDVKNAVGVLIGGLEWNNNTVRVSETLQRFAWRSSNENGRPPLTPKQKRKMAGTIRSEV

[16] = test system: H9c2; assay: cells; type: functional, cell-based; details: Rattus norvegicus, H9c2, Myocardium;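 further: confirmatory concentration-response retest of ultra-high-throughput screening hits for modulation of myocardial damage; cell death induced by hydrogen peroxide oxidative stress; compound pretreatment for 60 min then peroxide exposure for 2 h; potency is for protecting the cells against peroxide damage rather than for killing them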
[17] = luciferase reporter signal suppression in cells – H4 neuroglioma cells, luminescence, dose response (AID 1990); type: functional, cell-based
[18] = target: T5, Ubiquitin-conjugating enzyme E2 N (Homo sapiens, UniProt P61088); type: functional;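 further: Dose-response confirmation in a TR-FRET assay detecting UBC13-driven polyubiquitin chain formation, inhibition measured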
T5 sequence (P61088 whole entry): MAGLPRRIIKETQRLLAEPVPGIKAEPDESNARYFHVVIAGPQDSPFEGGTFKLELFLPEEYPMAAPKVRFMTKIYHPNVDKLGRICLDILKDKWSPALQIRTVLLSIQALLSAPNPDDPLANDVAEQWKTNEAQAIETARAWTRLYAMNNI

[19] = NIH-3T3 fibroblast cytotoxicity, dose response, cytotoxicity control, cell-based, fluorescence, Alamar Blue, secondary assay (AID 2327); type: functional;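 further: NIH-3T3 mouse fibroblasts cultured with fluconazole at 8 µg/mL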
[20] = fluconazole-exposed Candida albicans growth modulators – fluorescence, retest, confirmation (AID 2467); type: functional, cell-based
[21] = THP-1 cell cytotoxicity, dose response, cytotoxicity control for non-replicating M. tuberculosis project (AID 489025); type: functional
[22] = test system: Streptococcus sp. 'group A'; assay: Streptococcus pyogenes SK(-)GAS viability under kanamycin – luminescence, BacTiterGlo, confirmation, counter-screen for streptokinase expression inhibitor project, dose response (AID 1900); type: functional, organism-based
[23] = target: T6, Fatty acid synthase (Homo sapiens, UniProt P49327); assay: inhibition of human FAS-TE enzyme activity – biochemical, endpoint fluorescence intensity, uHTS hits, dose response (AID 624327); type: functional;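 further: fluorescence from hydrolysis of an O-methyl fluorescein acyl ester substrate by the enzyme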
T6 sequence (P49327 whole entry): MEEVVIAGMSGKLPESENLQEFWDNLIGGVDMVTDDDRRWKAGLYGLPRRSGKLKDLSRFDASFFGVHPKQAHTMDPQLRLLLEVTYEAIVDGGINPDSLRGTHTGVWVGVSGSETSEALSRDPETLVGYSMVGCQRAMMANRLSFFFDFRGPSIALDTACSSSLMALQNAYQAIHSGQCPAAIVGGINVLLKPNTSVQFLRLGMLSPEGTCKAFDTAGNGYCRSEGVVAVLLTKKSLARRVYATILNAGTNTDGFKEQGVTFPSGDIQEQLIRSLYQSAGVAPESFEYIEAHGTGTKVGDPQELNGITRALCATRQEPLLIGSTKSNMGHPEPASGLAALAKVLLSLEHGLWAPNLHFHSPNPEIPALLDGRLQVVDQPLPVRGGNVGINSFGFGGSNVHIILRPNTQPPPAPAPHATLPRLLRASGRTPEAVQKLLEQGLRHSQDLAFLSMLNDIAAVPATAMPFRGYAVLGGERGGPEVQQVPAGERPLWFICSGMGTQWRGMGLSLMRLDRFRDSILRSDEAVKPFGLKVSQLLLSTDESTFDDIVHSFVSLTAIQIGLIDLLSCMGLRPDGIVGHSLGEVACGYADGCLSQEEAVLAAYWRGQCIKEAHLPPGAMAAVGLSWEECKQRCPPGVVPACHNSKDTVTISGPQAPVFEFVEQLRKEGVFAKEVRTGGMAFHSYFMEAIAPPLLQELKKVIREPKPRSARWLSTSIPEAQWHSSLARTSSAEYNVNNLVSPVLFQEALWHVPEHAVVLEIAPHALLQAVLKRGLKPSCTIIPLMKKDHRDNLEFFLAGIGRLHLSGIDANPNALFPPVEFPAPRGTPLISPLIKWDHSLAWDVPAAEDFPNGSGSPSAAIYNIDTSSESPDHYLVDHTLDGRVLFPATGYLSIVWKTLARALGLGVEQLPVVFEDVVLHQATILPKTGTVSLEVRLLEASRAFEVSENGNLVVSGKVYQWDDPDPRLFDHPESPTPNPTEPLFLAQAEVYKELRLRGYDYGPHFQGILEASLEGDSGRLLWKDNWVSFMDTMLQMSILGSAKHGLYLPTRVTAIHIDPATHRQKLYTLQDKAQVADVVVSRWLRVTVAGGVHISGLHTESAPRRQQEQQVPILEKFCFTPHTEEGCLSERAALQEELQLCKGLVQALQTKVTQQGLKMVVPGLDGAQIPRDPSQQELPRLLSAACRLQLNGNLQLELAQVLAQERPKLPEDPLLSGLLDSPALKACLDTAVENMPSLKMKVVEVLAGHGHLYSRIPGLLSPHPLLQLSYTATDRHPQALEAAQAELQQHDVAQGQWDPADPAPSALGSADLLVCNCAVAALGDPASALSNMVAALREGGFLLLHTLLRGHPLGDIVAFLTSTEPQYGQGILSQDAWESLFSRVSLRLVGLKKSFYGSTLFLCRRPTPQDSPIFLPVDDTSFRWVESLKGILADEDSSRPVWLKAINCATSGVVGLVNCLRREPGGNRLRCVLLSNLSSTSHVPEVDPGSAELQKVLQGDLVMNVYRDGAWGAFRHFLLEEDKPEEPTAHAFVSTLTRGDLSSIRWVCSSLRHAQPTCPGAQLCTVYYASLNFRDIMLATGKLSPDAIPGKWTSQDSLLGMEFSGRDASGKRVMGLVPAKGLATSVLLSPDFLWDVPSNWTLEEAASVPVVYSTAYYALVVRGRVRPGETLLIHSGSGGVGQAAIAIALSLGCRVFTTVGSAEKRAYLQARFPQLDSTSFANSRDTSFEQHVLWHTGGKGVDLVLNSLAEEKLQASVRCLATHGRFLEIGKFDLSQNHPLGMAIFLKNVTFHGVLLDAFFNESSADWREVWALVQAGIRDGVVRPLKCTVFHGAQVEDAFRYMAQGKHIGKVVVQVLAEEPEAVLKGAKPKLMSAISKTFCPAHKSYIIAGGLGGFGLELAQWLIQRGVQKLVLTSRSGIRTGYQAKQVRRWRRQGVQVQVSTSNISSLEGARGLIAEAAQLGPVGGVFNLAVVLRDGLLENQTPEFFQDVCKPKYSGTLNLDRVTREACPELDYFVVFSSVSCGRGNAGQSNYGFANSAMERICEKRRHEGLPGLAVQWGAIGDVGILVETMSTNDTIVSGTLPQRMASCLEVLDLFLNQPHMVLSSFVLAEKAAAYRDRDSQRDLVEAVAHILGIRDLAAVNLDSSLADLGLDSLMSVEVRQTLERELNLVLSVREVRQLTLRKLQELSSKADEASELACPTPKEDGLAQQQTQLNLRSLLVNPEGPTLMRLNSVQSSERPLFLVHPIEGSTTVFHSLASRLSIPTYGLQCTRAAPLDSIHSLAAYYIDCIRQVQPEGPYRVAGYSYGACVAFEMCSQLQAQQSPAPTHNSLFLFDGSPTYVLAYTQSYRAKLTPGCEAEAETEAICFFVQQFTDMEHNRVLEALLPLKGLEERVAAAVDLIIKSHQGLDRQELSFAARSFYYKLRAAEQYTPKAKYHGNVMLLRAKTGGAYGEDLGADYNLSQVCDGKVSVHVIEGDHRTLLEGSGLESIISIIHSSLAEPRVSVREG

[24] = target: T6, Fatty acid synthase; assay: inhibition of human FAS-TE enzyme activity – biochemical, kinetic fluorescence intensity, dose response (AID 624326); type: functional;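 further: rate of fluorescence rise from hydrolysis of a fluorogenic O-methyl fluorescein ester substrate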
[25] = test system: Streptococcus; assay: GAS UMAA2166 growth inhibition – luminescence, BacTiterGlo, counter-screen for streptokinase expression inhibitor project, dose response (AID 1915); type: functional, organism-based;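 further: potency for reduction of bacterial viability or growth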
[26] = P. falciparum Dd2 growth inhibitors, dose response, SYBR Green, cherry-picked samples (AID 1159567); type: functional, cell-based

CCN(CC)c1ncnc2ccc(Br)cc12
AC50 [1]: 6.58 µM (active)
AC50 [2]: 6 µM (active)
AC50 [3]: 3.74 µM (active)
EC50 [4]: 13.8 µM (active)
AC50 [5]: 3.83 µM (active)

CC(C)Oc1cccc(C(=O)NC(=S)Nc2cccnc2)c1
IC50 [6]: > 40 µM (not active)
EC50 [7]: > 40 µM (inactive)

Cn1ncc(Oc2ccc([N+](=O)[O-])cc2)c(Cl)c1=O
EC50 [8]: 25.9 µM (active)
EC50 [9]: > 120 µM (not active)
EC50 [10]: > 120 µM (not active)
IC50 [11]: > 50 µM (inactive)

COc1ccc(N2CCN(S(=O)(=O)c3ccc(C(=O)NC4CCCC4)cc3)CC2)cc1
IC50 [11]: > 50 µM (inactive)

O=C(NC(=S)Nc1ccc(S(=O)(=O)Nc2nccs2)cc1)c1ccccc1F
IC50 [11]: > 50 µM (inactive)

Cc1cc(C)c(O)c(-c2cc(C(=O)NCc3ccccc3)[nH]n2)c1
IC50 [12]: 3.02 µM (not active)

CC1=C(C(=O)OCC2CCCO2)C(c2ccc(C)o2)C2=C(O)CC(c3ccc(N(C)C)cc3)CC2=N1 (centres undefined)
IC50 [12]: > 50 µM (not active)

O=C(CN1C(=O)C2C3C=CC(C3)C2C1=O)Nc1nc(-c2ccccn2)cs1 (centres undefined)
EC50 [13]: > 120 µM (not active)
EC50 [14]: 12.2 µM (active)
IC50 [15]: 10.5 µM (active)
IC50 [16]: 15.1 µM (active)
EC50 [17]: 15.4 µM (active)

CCCCCCCCCC(=O)N1c2ccccc2NC(=O)C1CC(=O)Nc1ccc(C(=O)O)cc1 (centres undefined)
IC50 [12]: 21.1 µM (not active)

O=C(O)CC(Cc1ccc(Cl)cc1)C(=O)Nc1ccc([N+](=O)[O-])cc1 (centres undefined)
IC50 [12]: > 50 µM (not active)

O=C(CSc1nnnn1-c1ccccc1)CSc1nnnn1-c1ccccc1
IC50 [12]: 7.04 µM (not active)

CCCc1nc2[nH]nc(N)c2c2c1CCC2
IC50 [11]: > 50 µM (inactive)

CCC(C)(C)NC(=O)C(c1ccc(C)o1)N(Cc1ccc2c(c1)OCO2)C(=O)c1snc(C(N)=O)c1N (centres undefined)
IC50 [18]: > 20 µM (inactive)

O=C(OCc1nnc(-c2ccccc2)o1)c1ccc2c(c1)OCO2
IC50 [12]: 15.2 µM (not active)

c1cnc2c(c1)ccc1cccnc12
IC50 [15]: 1.03 µM (active)
EC50 [19]: 6.76 µM (inconclusive)

O=C(NNC(=O)C12CC3CC(CC(C3)C1)C2)c1cnccn1
EC50 [20]: > 38 µM (not active)
CC50 [21]: 39.8 µM (active)
EC50 [19]: > 160 µM (inactive)

O=C(CCN1C(=O)C2C3CC(C(Br)C3Br)C2C1=O)OCC(=O)c1cccc([N+](=O)[O-])c1 (centres undefined)
IC50 [6]: 28.4 µM (not active)
EC50 [7]: > 40 µM (inactive)

COc1ccc(C2=NN(C(=O)c3ccc(Cl)c([N+](=O)[O-])c3)C(c3ccccc3)C2)cc1 (centres undefined)
IC50 [12]: 3.26 µM (not active)

COc1ccc2sc(-c3ccccc3OC)c(C#Cc3cncn3C)c2c1
IC50 [18]: > 20 µM (inactive)

COc1cccc(/C=N/n2c(N)c(S(=O)(=O)c3cccs3)c3nc4ccccc4nc32)c1OC
IC50 [11]: > 50 µM (inactive)

Cc1ncc(CO)c(/C=N/NC(=S)Nc2ccc(F)cc2)c1O
IC50 [15]: 2.84 µM (active)

COc1ccc(O)c(/C=N/NC(=O)c2cc(O)nc3ccccc23)c1
IC50 [11]: > 50 µM (inactive)

O=C(Cn1nc2ccccc2n1)N/N=C/c1cc([N+](=O)[O-])ccc1O
EC50 [22]: 0.419 µM (active)
IC50 [23]: 3.76 µM (active)
IC50 [15]: 5.08 µM (active)
IC50 [24]: 5.14 µM (active)
EC50 [4]: 0.691 µM (active)
EC50 [25]: 0.55 µM (active)

O=C(c1ccccn1)N1CC(=O)N2[C@H](C1)[C@@H](c1ccc(C#CCc3ccccc3)cc1)[C@@H]2CO
AC50 [26]: 9.01 µM (active)

CCC(=O)N1CC2(C1)CN(Cc1ccccc1Cl)[C@@H](CO)c1[nH]c3cc(OC)ccc3c12
AC50 [26]: 6.32 µM (active)

C[C@@H]1CN([C@@H](C)CO)C(=O)c2cc(NC(=O)Nc3ccc(C(F)(F)F)cc3)ccc2O[C@H]1CN(C)C(=O)Nc1cccc2ccccc12
AC50 [26]: 5.06 µM (active)

C[C@@H]1CN([C@H](C)CO)C(=O)c2cccc(NS(=O)(=O)c3ccccc3)c2O[C@H]1CN(C)Cc1ccc(Oc2ccccc2)cc1
AC50 [26]: 6.14 µM (active)

CC1CCN(CCNC(=O)c2ccc3c(=O)n(Cc4ccc(Cl)cc4)c(=S)[nH]c3c2)CC1
IC50 [18]: > 20 µM (inactive)
